According to patent US5441974A, “Phenyl amidines lactones useful as platelet aggregation inhibitors” (G. D. Searle & Co., priority 1994, dated 1995):
Counter-ions that a name gives are not always drawn.

Tested on: platelet aggregation
Experiment: In-Vitro Platelet Aggregation in PRP (ADP-induced)
Type: cell-based
Details: dog platelet-rich plasma, ADP 50 μm final; for IC50: 1 min preincubation at 37° C.; for % Inhibition: Test Concentration 1 × 10^-5
Description: Compounds of the invention were evaluated by an in vivo assay to determine compound activity as an inhibitors of platelet aggregation.
Healthy male or female dogs were fasted for 8 hours prior to drawing blood; then 30 mL whole blood was collected using a butterfly needle and 30 cc plastic syringe with 3 ml of 0.129M buffered sodium citrate (3.8%). The syringe was rotated carefully as blood was drawn to mix the citrate. Platelet-rich plasma (PRP) was prepared by centrifugation at 975×g for 3.17 minutes at room temperature, allowing the centrifuge to coast to a stop without braking. The PRP was removed from the blood with a plastic pipette and placed in a plastic capped, 50 ml Corning conical sterile centrifuge tube which was held at room temperature. Platelet poor plasma (PPP) was prepared by centrifuging the remaining blood at 2000×g for 15 minutes at room temperature allowing the centrifuge to coast to a stop without braking. The PRP was adjusted with PPP to a count of 2-3×10^8 platelets per ml. 400 μL of the PRP preparation and 50 μL of the compound to be tested or saline were preincubated for 1 minute at 37° C. in a BioData aggregometer (BioData, Horsham, Pa.). 50 μL of adenosine 5'diphosphate (ADP) (50 μm final concentration) was added to the cuvettes and the aggregation was monitored for 1 minute. All compounds are tested in duplicate. Results are calculated as follows:
Percent of control=[(maximal OD minus initial OD of compound) divided by (maximal OD minus initial OD of control saline)]×100. The % inhibition=100 - (percent of control).

[1] = Canis lupus familiaris, Platelet

Row | Structure (SMILES) | IC50 [1] | % Inhibition | IC50
1 | COc1ccc2c(c1)OC(=O)CC2NC(=O)CCCCc1ccc(C(=N)N)cc1 (racemic) [Example 3, (±)-4-(Aminoiminomethyl)-N-(3,4-dihydro-7-methoxy-2-oxo-2H-1-benzopyran-4-yl)benzenepentanamide] | 1100 nM | 96% | –
2 | N=C(N)c1ccc(CCCCC(=O)N[C@H]2CC(=O)OC2c2nccs2)cc1 (single isomer, unassigned; diastereoisomer a) [Example 7, 4-(aminoiminomethyl)-N-[tetrahydro-5-oxo-2-(2-thiazolyl)-3S-furanyl]benzene pentanamide, bis(trifluoroacetate) (diastereoisomer A)] | – | – | > 10000 nM
3 | N=C(N)c1ccc(CCCCC(=O)NC2CC(=O)Oc3ccccc32)cc1 (racemic) [Example 2, (±)-4-(Aminoiminomethyl)-N-(3,4-dihydro-2-oxo-2H-1-benzopyran-4-yl) benzenepentanamide] | 2000 nM | – | –
4 | N=C(N)c1ccc(CCCCC(=O)NC2CC(=O)OC2c2nccs2)cc1 (single isomer, unassigned; diastereoisomer b) [Example 8, 4-(aminoiminomethyl)-N-[tetrahydro-5-oxo-2-(2-thiazolyl)-3S-furanyl]benzene pentanamide, trifluoroacetate. (diastereoisomer B)] | – | – | > 10000 nM
5 | N=C(N)c1ccc(CCCCC(=O)N[C@@H]2COC(=O)C2)cc1 [Example 1, 4-(Aminoiminomethyl)-N-(5-oxo-3S-furanyl)benzenepentanamide] | – | 44% | –
6 | N=C(N)c1ccc(CCCCC(=O)N[C@H]2CC(=O)OC2c2ccccc2)cc1 (single isomer, unassigned; diastereoisomer b) [Example 5, 4-(aminoiminomethyl)-N-(tetrahydro-5-oxo-2-phenyl-3S-furanyl)benzenepentanamide, trifluoroacetate (diastereoisomer B)] | – | – | 5100 nM
7 | N=C(N)c1ccc(CCCCC(=O)N[C@H]2CC(=O)OC2c2ccccc2)cc1 (single isomer, unassigned; diastereomer a) [Example 4] | – | 100% | 680 nM
